Data on ten compounds can be found in ChEMBL document CHEMBL1157706, “Inhibitors of human tyrosyl-DNA phospodiesterase (hTdp1) developed by virtual screening using ligand-based pharmacophores” (Bioorg Med Chem, 2010).

pIC50: −log10 of the molar value.

Assay [1] addresses T1, Tyrosyl-DNA phosphodiesterase 1 (Homo sapiens, UniProt Q9NUW8). The assay is described as follows: Inhibition of human tyrosyl-DNA phosphodiesterase 1 after 30 mins by alpha high throughput screening assay.
The target of assay [2] is T1, Tyrosyl-DNA phosphodiesterase 1. The assay can be described thus: Inhibition of human tyrosyl-DNA phosphodiesterase 1 after 30 mins by alpha high throughput screening assay in presence of 0.01% Tween-20.
For assay [3] the target is unchanged. The assay is described as follows: Inhibition of human tyrosyl-DNA phosphodiesterase 1 after 30 mins by alpha high throughput screening assay in presence of 0.05% Tween-20.

T1 sequence (Q9NUW8 whole entry): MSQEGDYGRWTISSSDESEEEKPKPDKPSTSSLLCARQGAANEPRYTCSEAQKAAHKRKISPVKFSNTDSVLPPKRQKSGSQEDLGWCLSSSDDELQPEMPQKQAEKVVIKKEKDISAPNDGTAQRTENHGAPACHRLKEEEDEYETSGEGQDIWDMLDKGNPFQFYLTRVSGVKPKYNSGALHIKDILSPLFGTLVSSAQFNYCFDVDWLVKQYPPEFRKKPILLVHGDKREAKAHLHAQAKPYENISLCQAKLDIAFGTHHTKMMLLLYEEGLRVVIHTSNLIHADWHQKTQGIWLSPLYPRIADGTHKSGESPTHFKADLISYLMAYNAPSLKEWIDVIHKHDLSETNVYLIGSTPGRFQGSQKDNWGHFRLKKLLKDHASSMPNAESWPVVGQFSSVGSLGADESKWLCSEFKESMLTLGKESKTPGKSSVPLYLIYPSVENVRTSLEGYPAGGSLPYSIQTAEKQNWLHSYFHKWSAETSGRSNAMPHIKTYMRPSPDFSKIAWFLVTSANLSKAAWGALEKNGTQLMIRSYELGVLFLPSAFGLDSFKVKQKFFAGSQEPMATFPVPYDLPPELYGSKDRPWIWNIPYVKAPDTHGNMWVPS

As for `Fc1cccc(Cl)c1/C=N/N=C1c2ccccc2-c2ccccc21`, in assay [1], the pIC50 (as a rule, −log10 of the IC50, conventionally taken in molar units) is 4.85.

On to `O=c1c2ccccc2c2ccccc2c(=O)n1-c1cccc2c1ccc1c3ccccc3ccc21`, for which the pIC50 in assay [1] is 5.30.

Consider `CCOC(=O)CN(C(=O)COC(=O)Cc1c[nH]c2ccccc12)c1ccc(F)cc1`, for which the negative-log IC50 (pIC50) was 5.10 in assay [2] and 4.95 in assay [3].

As for `COc1cc(/C=C/C(=O)OC(C(=O)N2CCCCC2)c2ccccc2)ccc1O` (stereo not drawn), the values for the negative-log IC50 (pIC50) in assay [2] and in assay [3] were 4.10 and 4.15, respectively.

As for `COC(=O)c1ccc(COc2ccc(C3Nc4ccccc4C(=O)N3C3CC3)cc2OC)cc1` (stereo not drawn), the pIC50 in assay [2] is 4.35; in assay [3] it was 4.05.

For the compound `Cc1cc(C)nc(N/C=C(\C#N)C(=O)c2cccc(CSc3ccccc3)c2)n1`, the pIC50 in assay [2] was 4.00; in assay [3], 4.10.

Turning to `CCOc1cccc2cc(C(=O)OCC(=O)c3c[nH]c4ccccc34)c(=O)oc12`, the values for the pIC50 in assay [2] and in assay [3] were 4.85 and 4.65, respectively.

As for `O=C(/C=C/c1ccc(C(F)(F)F)cc1)OC(C(=O)NC1CC1)c1ccccc1` (stereo not drawn), the pIC50 in assay [2] was 4.50; in assay [3], 4.35.

In the case of `CCOC(=O)c1sc(N2C(=O)c3oc4ccc(F)cc4c(=O)c3C2c2ccc(C)cc2)nc1C` (stereo not drawn), the pIC50 in assay [2] is 4.35; in assay [3], 4.30.

`O=C(OCc1cn2ccccc2n1)c1c2c(nc3ccccc13)CCC2`: the figures for the pIC50 in assay [2] and in assay [3] were 4.45 and 4.30, respectively.
